Reference: the CheMixHub viscosity set

Test: xn = mol fraction of the nth substance listed

CC(C)(C)N + Cc1ccccc1
303.15 K, 101 kPa
Settings	viscosity [mPa·s]
x2 = 0.1549	0.4385
x2 = 0.2226	0.4405
x2 = 0.3039	0.4431
x2 = 0.3981	0.4489
x2 = 0.522	0.458
x2 = 0.6221	0.4693
x2 = 0.7184	0.4824
x2 = 0.8751	0.5067

CCCCCCCCO + Cc1ccccc1
viscosity [mPa·s], 101 kPa
Settings	298.15 K	308.15 K
x2 = 0.0495	6.43	4.918
x2 = 0.1104	5.45	4.28
x2 = 0.1513	4.841	3.853
x2 = 0.1999	4.2	3.402
x2 = 0.2517	3.646	3.009
x2 = 0.2997	3.252	2.674
x2 = 0.356	2.717	2.317
x2 = 0.3998	2.395	2.048
x2 = 0.4506	2.092	1.825
x2 = 0.5001	1.84	1.637
x2 = 0.5513	1.598	1.42
x2 = 0.6014	1.404	1.272
x2 = 0.6495	1.244	1.119
x2 = 0.6997	1.098	1.015
x2 = 0.7569	0.96	0.87
x2 = 0.8012	0.859	0.779
x2 = 0.8527	0.769	0.699
x2 = 0.9	0.674	0.61
x2 = 0.954	0.612	0.554

BrC(Br)Br + ClC(Cl)(Cl)Cl
Settings	viscosity [mPa·s]
298 K, 101.3 kPa, x1 = 0.1194	0.965
298 K, 101.3 kPa, x1 = 0.2186	1.037
298 K, 101.3 kPa, x1 = 0.3128	1.115
298 K, 101.3 kPa, x1 = 0.4431	1.231
298 K, 101.3 kPa, x1 = 0.5248	1.308
298 K, 101.3 kPa, x1 = 0.6217	1.397
298 K, 101.3 kPa, x1 = 0.7153	1.477
298 K, 101.3 kPa, x1 = 0.8068	1.609
298 K, 101.3 kPa, x1 = 0.8986	1.753
318 K, 101.33 kPa, x1 = 0.1597	0.8215
318 K, 101.33 kPa, x1 = 0.3179	0.9131
318 K, 101.33 kPa, x1 = 0.5191	1.056
318 K, 101.33 kPa, x1 = 0.6651	1.164
318 K, 101.33 kPa, x1 = 0.8607	1.328

C=Cc1ccccc1 + ClC(Cl)Cl
viscosity [mPa·s], 101.33 kPa
Settings	x1 = 0.101	x1 = 0.2004	x1 = 0.3009	x1 = 0.4022	x1 = 0.5055	x1 = 0.5997	x1 = 0.705	x1 = 0.7962	x1 = 0.9
298.15 K	0.5838	0.6109	0.6357	0.6615	0.6849	0.7054	0.7267	0.7443	0.7286
303.15 K	0.5575	0.5816	0.6033	0.628	0.6463	0.6686	0.6832	0.6993	0.6841
308.15 K	0.5324	0.5513	0.5742	0.5915	0.6109	0.6272	0.6447	0.6581	0.6521

BrC(Br)Br + ClCCCCCl
viscosity [mPa·s], 101 kPa
Settings	x1 = 0.0978	x1 = 0.197	x1 = 0.2974	x1 = 0.3963	x1 = 0.496	x1 = 0.5975	x1 = 0.6963	x1 = 0.7994	x1 = 0.8972
298.15 K	1.382	1.455	1.538	1.607	1.677	1.748	1.813	1.868	1.924
303.15 K	1.278	1.346	1.423	1.489	1.556	1.624	1.686	1.743	1.803
308.15 K	1.184	1.247	1.32	1.381	1.446	1.507	1.573	1.625	1.687
313.15 K	1.099	1.158	1.232	1.281	1.34	1.401	1.462	1.52	1.578

BrC(Br)Br + N#CCc1ccccc1
298.15 K, 101 kPa
Settings	viscosity [mPa·s]
x1 = 0.1271	1.937
x1 = 0.2393	2
x1 = 0.3546	2.087
x1 = 0.5011	2.112
x1 = 0.601	2.117
x1 = 0.6932	2.08
x1 = 0.7999	2.027
x1 = 0.889	1.966

BrC(Br)Br + N#Cc1ccccc1
298.15 K, 101 kPa
Settings	viscosity [mPa·s]
x1 = 0.1782	1.372
x1 = 0.3333	1.548
x1 = 0.4937	1.727
x1 = 0.6066	1.861
x1 = 0.7005	1.88
x1 = 0.8886	1.893

CC(C)(C)N + NC1CCCCC1
298.15 K, 101 kPa
Settings	viscosity [mPa·s]
x2 = 0.0757	0.569
x2 = 0.1557	0.7445
x2 = 0.2401	0.9554
x2 = 0.3296	1.173
x2 = 0.4244	1.407
x2 = 0.5252	1.612
x2 = 0.6324	1.785
x2 = 0.7468	1.894
x2 = 0.8691	1.915

CCCCCCCCO + NCCO
viscosity [mPa·s], 101.3 kPa
Settings	x2 = 0.1	x2 = 0.2	x2 = 0.3	x2 = 0.4	x2 = 0.5	x2 = 0.6	x2 = 0.7	x2 = 0.8	x2 = 0.9
303.15 K	6.48	6.8	7.36	8.14	9.01	9.97	11	12.1	13.4
313.15 K	4.68	4.93	5.28	5.77	6.27	6.83	7.48	8.16	8.98
323.15 K	3.49	3.68	3.92	4.23	4.55	4.9	5.34	5.79	6.29

BrC(Br)Br + Nc1ccccc1
298.15 K, 101 kPa
Settings	viscosity [mPa·s]
x1 = 0.1402	3.373
x1 = 0.2067	3.235
x1 = 0.3151	3.026
x1 = 0.4133	2.856
x1 = 0.5137	2.657
x1 = 0.614	2.486
x1 = 0.701	2.349
x1 = 0.808	2.196

BrC(Br)Br + Nc1ccccc1Cl
viscosity [mPa·s], 101 kPa
Settings	x1 = 0.1006	x1 = 0.1969	x1 = 0.3023	x1 = 0.3984	x1 = 0.5023	x1 = 0.5997	x1 = 0.6951	x1 = 0.8013	x1 = 0.8983
298.15 K	2.948	2.901	2.784	2.699	2.585	2.453	2.342	2.208	2.096
303.15 K	2.693	2.616	2.509	2.425	2.326	2.244	2.15	2.045	1.955
308.15 K	2.378	2.33	2.267	2.197	2.122	2.065	1.981	1.896	1.82
313.15 K	2.122	2.102	2.062	1.995	1.96	1.896	1.831	1.764	1.697

C[C@@H](O)[C@H](N)C(=O)O + O
101 kPa
Settings	viscosity [mPa·s]
293.15 K, x1 = 0.001804	1.036
293.15 K, x1 = 0.0107	1.226
298.15 K, x1 = 8.95e-05	0.9002
298.15 K, x1 = 0.0001801	0.9048
298.15 K, x1 = 0.001819	0.9278
298.15 K, x1 = 0.003526	0.9547
298.15 K, x1 = 0.005296	0.9865
298.15 K, x1 = 0.007341	1.02
298.15 K, x1 = 0.008519	1.047
298.15 K, x1 = 0.01104	1.075
298.15 K, x1 = 0.01269	1.105
298.15 K, x1 = 0.01399	1.136
303.15 K, x1 = 0.007153	0.904
303.15 K, x1 = 0.01245	0.9968
305.15 K, x1 = 0.00036	0.788
305.15 K, x1 = 0.0007203	0.7937
305.15 K, x1 = 0.00108	0.7998
305.15 K, x1 = 0.001439	0.8055
305.15 K, x1 = 0.001798	0.8106
305.15 K, x1 = 0.002157	0.8163
308.15 K, x1 = 8.95e-05	0.7885
308.15 K, x1 = 0.0001801	0.7945
308.15 K, x1 = 0.001819	0.8025
308.15 K, x1 = 0.003526	0.8241
308.15 K, x1 = 0.005296	0.8417
308.15 K, x1 = 0.007341	0.8612
308.15 K, x1 = 0.008519	0.8741
308.15 K, x1 = 0.01104	0.9001
308.15 K, x1 = 0.01269	0.9289
308.15 K, x1 = 0.01399	0.9456
310.15 K, x1 = 0.00036	0.707
310.15 K, x1 = 0.0007203	0.7122
310.15 K, x1 = 0.00108	0.7174
310.15 K, x1 = 0.001439	0.7223
310.15 K, x1 = 0.001798	0.7263
310.15 K, x1 = 0.002157	0.7313
313.15 K, x1 = 0.008929	0.758
313.15 K, x1 = 0.0107	0.7828
313.15 K, x1 = 0.01245	0.8054
315.15 K, x1 = 0.00036	0.6527
315.15 K, x1 = 0.0007203	0.6576
315.15 K, x1 = 0.00108	0.6612
315.15 K, x1 = 0.001439	0.6656
315.15 K, x1 = 0.001798	0.6694
315.15 K, x1 = 0.002157	0.6737
318.15 K, x1 = 8.95e-05	0.6814
318.15 K, x1 = 0.0001801	0.6945
318.15 K, x1 = 0.001819	0.7042
318.15 K, x1 = 0.003526	0.7214
318.15 K, x1 = 0.005296	0.7356
318.15 K, x1 = 0.007341	0.7565
318.15 K, x1 = 0.008519	0.7645
318.15 K, x1 = 0.01104	0.7898
318.15 K, x1 = 0.01269	0.8045
318.15 K, x1 = 0.01399	0.8214
323.15 K, x1 = 0.00359	0.5782
323.15 K, x1 = 0.007153	0.6118

O=[N+]([O-])[O-].O=[N+]([O-])[O-].[Cd+2] + O
viscosity [mPa·s], 101.3 kPa
Settings	x1 = 0.0009	x1 = 0.0018	x1 = 0.00893	x1 = 0.0177	x1 = 0.02631	x1 = 0.03478	x1 = 0.05127	x1 = 0.06722	x1 = 0.08263
293.15 K	1.02	1.036	1.166	1.363	1.607	1.912	2.746	3.964	5.664
298.15 K	0.9069	0.9215	1.041	1.219	1.437	1.708	2.443	3.496	4.949
303.15 K	0.8129	0.8263	0.936	1.097	1.293	1.537	2.189	3.11	4.364
308.15 K	0.7336	0.7459	0.8471	0.994	1.171	1.391	1.975	2.789	3.882
313.15 K	0.6664	0.678	0.7712	0.9059	1.067	1.267	1.792	2.521	3.48
318.15 K	0.6085	0.6193	0.7057	0.8296	0.977	1.16	1.637	2.288	3.143
323.15 K	0.5582	0.568	0.6484	0.7627	0.8979	1.066	1.502	2.093	2.855
